ChEMBL document CHEMBL4800722, “Data for DCP probe BI 605906” (2021)

Assays:
[1] = target: Platelet-derived growth factor receptor beta (Homo sapiens) (UniProt P09619)
[2] = target: cAMP-dependent protein kinase catalytic subunit alpha (Homo sapiens) (UniProt P17612)
[3] = target: AMPK alpha1/beta1/gamma2 (Homo sapiens) (UniProt Q9UGJ0+Q9Y478+Q13131); settings: Compound concentration 1.0 uM
[4] = target: Serine/threonine-protein kinase 3 (Homo sapiens) (UniProt Q13188); test: STK3 Invitrogen Lab (UK) kinase screen (BI); settings: Compound concentration 1.0 uM
[5] = target: G protein-coupled receptor kinase 6 (Homo sapiens) (UniProt P43250); settings: Compound concentration 1.0 uM
[6] = target: Serine/threonine-protein kinase greatwall (Homo sapiens) (UniProt Q96GX5); test: MASTL Invitrogen Lab (UK) kinase screen (BI); settings: Compound concentration 1.0 uM
[7] = target: TGF-beta receptor type-1 (Homo sapiens) (UniProt P36897); settings: Compound concentration 1.0 uM
[8] = target: Natriuretic peptides A (Cavia porcellus) (UniProt P27596); settings: Compound concentration 100.0 uM
[9] = target: Receptor tyrosine-protein kinase erbB-2 (Homo sapiens) (UniProt P04626)
[10] = target: Homeodomain-interacting protein kinase 4 (Homo sapiens) (UniProt Q8NE63); test: HIPK4 Invitrogen Lab (UK) kinase screen (BI); settings: Compound concentration 1.0 uM
[11] = target: Bone morphogenetic protein receptor type-1B (Homo sapiens) (UniProt O00238); test: BMPR1B (ALK6) Invitrogen Lab (UK) kinase screen (BI); settings: Compound concentration 1.0 uM
[12] = target: MAP kinase-activated protein kinase 3 (Homo sapiens) (UniProt Q16644); test: MAPKAP-K3 DUNDEE kinase screen (BI); settings: Compound concentration 10.0 uM
[13] = target: Serine/threonine-protein kinase 17B (Homo sapiens) (UniProt O94768); settings: Compound concentration 1.0 uM
[14] = target: Serine/threonine-protein kinase SBK1 (Homo sapiens) (UniProt Q52WX2); settings: Compound concentration 1.0 uM
[15] = target: Leucine-rich repeat serine/threonine-protein kinase 2 (Homo sapiens) (UniProt Q5S007); test: LRRK2 Invitrogen Lab (UK) kinase screen (BI); settings: Compound concentration 1.0 uM
[16] = target: Hepatocyte growth factor receptor (Homo sapiens) (UniProt P08581)
[17] = target: D(1B) dopamine receptor (Homo sapiens) (UniProt P21918); settings: Compound concentration 10.0 uM
[18] = target: Collagenase 3 (Homo sapiens) (UniProt P45452); settings: Compound concentration 10.0 uM
[19] = target: Rho-associated protein kinase 2 (Homo sapiens) (UniProt O75116); settings: Compound concentration 1.0 uM
[20] = target: Mitogen-activated protein kinase kinase kinase 19 (Homo sapiens) (UniProt Q56UN5); settings: Compound concentration 1.0 uM
[21] = target: Serine/threonine-protein kinase tousled-like 1 (Homo sapiens) (UniProt Q9UKI8); settings: Compound concentration 1.0 uM
[22] = target: Dual specificity tyrosine-phosphorylation-regulated kinase 1A (Homo sapiens) (UniProt Q13627); test: DYRK1A DUNDEE kinase screen (BI); settings: Rattus norvegicus; Compound concentration 10.0 uM
[23] = target: Tyrosine-protein kinase CSK (Homo sapiens) (UniProt P41240)
[24] = target: Serine/threonine-protein kinase WNK2 (Homo sapiens) (UniProt Q9Y3S1); test: WNK2 Invitrogen Lab (UK) kinase screen (BI); settings: Compound concentration 1.0 uM
[25] = target: Ribosomal protein S6 kinase alpha-5 (Homo sapiens) (UniProt O75582); test: RPS6KA5 Invitrogen Lab (UK) kinase screen (BI); settings: Compound concentration 1.0 uM
[26] = target: AP2-associated protein kinase 1 (Homo sapiens, UniProt Q2M2I8); test: Dose response measurement (AAK1)
[27] = target: Insulin receptor (Homo sapiens) (UniProt P06213)
[28] = target: NUAK family SNF1-like kinase 2 (Homo sapiens) (UniProt Q9H093); test: NUAK2 Invitrogen Lab (UK) kinase screen (BI); settings: Compound concentration 1.0 uM
[29] = target: Sodium-dependent serotonin transporter (Homo sapiens) (UniProt P31645); settings: Compound concentration 10.0 uM
[30] = target: Cyclin-G-associated kinase (Homo sapiens, UniProt O14976); test: NanoBRET (SGC-FFM) (GAK)
[31] = target: CDK17/Cyclin-Y (Homo sapiens) (UniProt Q00537+Q8ND76); test: CDK17/CYCLIN Y Invitrogen Lab (UK) kinase screen (BI); type: protein-complex assay; settings: Compound concentration 1.0 uM
[32] = target: Angiotensin-converting enzyme (Oryctolagus cuniculus) (UniProt P12822); settings: Compound concentration 10.0 uM
[33] = target: Serine/threonine-protein kinase 33 (Homo sapiens) (UniProt Q9BYT3); test: STK33 Invitrogen Lab (UK) kinase screen (BI); settings: Compound concentration 1.0 uM
[34] = target: PI3-kinase p110-delta/p85-alpha (Homo sapiens) (UniProt P27986+O00329); settings: Compound concentration 1.0 uM
[35] = target: D(1A) dopamine receptor (Homo sapiens) (UniProt P21728); settings: Compound concentration 10.0 uM
[36] = target: Cyclin-dependent kinase 16 (Homo sapiens) (UniProt Q00536); settings: Compound concentration 1.0 uM
[37] = target: Protein kinase C iota type (Homo sapiens) (UniProt P41743); settings: Compound concentration 1.0 uM
[38] = target: Serine/threonine-protein kinase 25 (Homo sapiens) (UniProt O00506); settings: Compound concentration 1.0 uM

Sequence of Platelet-derived growth factor receptor beta (Homo sapiens) (P09619 whole entry): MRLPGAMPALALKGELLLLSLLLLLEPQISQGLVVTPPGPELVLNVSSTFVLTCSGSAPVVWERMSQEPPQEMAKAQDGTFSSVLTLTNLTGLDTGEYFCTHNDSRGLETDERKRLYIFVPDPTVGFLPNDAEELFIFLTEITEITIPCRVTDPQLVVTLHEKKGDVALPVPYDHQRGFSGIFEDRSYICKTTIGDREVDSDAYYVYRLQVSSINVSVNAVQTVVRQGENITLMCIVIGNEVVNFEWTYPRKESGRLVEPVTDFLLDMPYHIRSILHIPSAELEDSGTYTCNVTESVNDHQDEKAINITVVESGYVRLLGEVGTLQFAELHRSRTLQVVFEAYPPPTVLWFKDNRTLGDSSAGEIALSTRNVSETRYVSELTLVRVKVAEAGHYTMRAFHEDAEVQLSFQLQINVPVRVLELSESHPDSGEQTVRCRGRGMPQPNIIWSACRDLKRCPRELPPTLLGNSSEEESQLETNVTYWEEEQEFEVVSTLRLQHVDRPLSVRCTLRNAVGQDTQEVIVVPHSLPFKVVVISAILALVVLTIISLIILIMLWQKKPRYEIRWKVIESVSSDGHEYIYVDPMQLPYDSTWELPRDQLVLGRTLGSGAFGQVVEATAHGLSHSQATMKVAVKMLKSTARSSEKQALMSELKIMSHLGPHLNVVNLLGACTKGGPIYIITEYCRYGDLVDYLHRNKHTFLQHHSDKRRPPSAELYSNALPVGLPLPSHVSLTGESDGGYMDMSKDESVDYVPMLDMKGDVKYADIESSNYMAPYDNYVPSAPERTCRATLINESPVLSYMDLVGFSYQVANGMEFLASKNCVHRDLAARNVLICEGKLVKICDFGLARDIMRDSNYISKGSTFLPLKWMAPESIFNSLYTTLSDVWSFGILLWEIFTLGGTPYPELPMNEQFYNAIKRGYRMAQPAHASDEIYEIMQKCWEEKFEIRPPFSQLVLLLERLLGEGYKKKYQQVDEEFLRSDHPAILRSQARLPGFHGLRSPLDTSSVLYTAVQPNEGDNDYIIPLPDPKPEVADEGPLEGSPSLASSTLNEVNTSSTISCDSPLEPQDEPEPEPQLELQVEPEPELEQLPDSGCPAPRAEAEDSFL
Sequence of Receptor tyrosine-protein kinase erbB-2 (Homo sapiens) (P04626 whole entry): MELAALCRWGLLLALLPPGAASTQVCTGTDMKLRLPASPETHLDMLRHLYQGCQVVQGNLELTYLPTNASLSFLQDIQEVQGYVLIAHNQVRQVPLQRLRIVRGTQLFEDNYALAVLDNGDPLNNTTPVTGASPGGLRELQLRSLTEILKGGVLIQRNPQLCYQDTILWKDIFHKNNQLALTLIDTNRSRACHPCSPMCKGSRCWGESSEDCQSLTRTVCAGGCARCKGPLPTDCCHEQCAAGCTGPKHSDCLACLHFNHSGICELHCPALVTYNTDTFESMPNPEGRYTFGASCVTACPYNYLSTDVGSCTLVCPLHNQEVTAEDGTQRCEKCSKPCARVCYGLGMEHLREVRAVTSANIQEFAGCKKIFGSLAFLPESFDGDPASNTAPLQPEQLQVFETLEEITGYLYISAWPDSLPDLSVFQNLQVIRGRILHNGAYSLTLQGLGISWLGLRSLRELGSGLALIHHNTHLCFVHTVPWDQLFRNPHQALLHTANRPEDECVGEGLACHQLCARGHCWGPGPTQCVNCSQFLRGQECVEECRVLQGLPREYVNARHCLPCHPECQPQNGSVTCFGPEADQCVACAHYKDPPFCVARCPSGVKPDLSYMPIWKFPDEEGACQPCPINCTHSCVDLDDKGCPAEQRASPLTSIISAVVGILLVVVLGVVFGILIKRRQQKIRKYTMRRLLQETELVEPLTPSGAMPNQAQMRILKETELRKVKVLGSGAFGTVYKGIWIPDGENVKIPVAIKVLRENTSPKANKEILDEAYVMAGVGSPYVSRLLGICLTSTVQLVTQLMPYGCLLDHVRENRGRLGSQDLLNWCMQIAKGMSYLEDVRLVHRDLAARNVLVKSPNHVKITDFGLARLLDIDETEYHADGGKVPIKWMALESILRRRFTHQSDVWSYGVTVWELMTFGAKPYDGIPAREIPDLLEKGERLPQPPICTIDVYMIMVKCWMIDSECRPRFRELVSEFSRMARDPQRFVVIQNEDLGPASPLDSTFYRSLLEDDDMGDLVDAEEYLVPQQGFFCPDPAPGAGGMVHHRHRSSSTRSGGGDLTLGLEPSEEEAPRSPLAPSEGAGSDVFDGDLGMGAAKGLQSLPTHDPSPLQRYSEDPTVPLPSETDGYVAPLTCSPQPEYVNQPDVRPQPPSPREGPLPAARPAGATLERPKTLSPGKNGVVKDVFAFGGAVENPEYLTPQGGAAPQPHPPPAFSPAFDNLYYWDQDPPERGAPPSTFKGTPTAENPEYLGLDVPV
Sequence of Tyrosine-protein kinase CSK (Homo sapiens) (P41240 2-450 limits assumed): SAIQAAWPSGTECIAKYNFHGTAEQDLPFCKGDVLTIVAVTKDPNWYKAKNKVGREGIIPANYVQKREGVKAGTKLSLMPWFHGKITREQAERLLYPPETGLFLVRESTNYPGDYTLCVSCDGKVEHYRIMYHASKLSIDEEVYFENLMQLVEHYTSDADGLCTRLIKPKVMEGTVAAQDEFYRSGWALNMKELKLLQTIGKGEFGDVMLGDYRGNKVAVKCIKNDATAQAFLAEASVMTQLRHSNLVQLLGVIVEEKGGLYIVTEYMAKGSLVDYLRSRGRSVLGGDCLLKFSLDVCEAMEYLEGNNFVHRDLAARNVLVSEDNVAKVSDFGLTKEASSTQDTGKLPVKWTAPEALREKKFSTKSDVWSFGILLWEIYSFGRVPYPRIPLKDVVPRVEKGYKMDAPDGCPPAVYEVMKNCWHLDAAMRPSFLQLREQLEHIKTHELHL
Sequence of Insulin receptor (Homo sapiens) (P06213 28-758 limits assumed): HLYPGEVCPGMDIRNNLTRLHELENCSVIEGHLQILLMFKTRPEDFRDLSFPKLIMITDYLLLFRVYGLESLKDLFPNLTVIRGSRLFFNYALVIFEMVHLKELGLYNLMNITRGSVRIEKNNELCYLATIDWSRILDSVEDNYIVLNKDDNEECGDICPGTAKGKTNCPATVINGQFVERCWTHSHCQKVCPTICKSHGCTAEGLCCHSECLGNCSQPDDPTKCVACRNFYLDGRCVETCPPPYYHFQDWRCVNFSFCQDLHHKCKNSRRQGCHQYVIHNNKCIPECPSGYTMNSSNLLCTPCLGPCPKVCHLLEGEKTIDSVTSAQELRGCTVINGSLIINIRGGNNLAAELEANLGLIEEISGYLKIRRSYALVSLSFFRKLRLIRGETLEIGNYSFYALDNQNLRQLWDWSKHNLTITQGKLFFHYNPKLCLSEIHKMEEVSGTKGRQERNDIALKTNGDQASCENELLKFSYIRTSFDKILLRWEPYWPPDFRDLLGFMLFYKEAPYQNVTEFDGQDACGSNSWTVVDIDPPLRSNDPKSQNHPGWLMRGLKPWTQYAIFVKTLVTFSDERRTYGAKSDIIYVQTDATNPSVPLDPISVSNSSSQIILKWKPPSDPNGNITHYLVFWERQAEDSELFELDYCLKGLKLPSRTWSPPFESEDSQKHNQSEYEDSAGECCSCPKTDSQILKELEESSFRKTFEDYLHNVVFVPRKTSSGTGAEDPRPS
Sequence of Insulin receptor (Homo sapiens) (P06213 763-1382 limits assumed): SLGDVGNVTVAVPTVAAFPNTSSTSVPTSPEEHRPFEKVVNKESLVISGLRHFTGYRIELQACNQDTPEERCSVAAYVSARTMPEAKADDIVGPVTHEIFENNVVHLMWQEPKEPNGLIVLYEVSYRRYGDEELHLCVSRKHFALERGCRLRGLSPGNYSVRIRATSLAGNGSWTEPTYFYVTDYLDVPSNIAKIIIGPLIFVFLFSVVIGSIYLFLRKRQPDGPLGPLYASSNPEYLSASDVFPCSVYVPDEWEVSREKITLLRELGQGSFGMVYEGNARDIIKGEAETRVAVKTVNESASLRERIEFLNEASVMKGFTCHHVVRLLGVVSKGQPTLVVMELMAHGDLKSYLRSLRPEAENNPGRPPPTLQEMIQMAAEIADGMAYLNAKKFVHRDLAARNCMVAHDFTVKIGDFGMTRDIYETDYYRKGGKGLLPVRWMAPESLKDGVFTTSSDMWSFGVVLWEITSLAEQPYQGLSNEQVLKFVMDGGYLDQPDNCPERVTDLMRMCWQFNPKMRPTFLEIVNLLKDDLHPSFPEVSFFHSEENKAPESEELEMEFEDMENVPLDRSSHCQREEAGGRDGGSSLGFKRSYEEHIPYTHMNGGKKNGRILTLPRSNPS
Sequence of Ribosomal protein S6 kinase alpha-5 (Homo sapiens) (O75582 whole entry, looked up): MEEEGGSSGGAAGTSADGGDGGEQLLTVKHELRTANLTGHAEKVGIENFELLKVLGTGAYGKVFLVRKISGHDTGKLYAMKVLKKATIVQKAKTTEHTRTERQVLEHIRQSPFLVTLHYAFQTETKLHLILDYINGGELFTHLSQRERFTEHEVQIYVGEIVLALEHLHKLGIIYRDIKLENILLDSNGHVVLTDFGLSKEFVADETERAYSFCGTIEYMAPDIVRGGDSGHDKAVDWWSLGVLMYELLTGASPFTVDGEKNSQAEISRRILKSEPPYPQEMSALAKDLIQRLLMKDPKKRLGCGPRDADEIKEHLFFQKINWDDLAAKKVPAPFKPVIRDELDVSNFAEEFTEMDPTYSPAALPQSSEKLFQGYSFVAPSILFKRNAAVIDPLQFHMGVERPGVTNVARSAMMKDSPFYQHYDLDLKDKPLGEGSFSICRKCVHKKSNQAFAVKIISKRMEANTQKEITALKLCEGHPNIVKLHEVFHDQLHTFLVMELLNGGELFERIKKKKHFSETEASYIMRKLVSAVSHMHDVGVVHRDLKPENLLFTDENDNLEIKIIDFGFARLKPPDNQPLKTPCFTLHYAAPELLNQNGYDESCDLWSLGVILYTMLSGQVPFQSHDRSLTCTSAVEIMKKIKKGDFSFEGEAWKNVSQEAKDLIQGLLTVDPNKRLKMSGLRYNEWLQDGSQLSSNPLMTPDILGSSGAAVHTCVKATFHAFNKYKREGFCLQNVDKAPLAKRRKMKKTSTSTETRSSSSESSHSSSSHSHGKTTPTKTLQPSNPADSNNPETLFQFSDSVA

CCC(F)(F)c1cc(N2CCC(S(C)(=O)=O)CC2)nc2sc(C(N)=O)c(N)c12 [BI-605906]
residual activity ([1]; Compound concentration 1.0 uM): 89% | residual activity ([1]; Compound concentration 10.0 uM): 87% | residual activity ([2]; Compound concentration 1.0 uM): 98% | residual activity ([2]; Compound concentration 10.0 uM): 71% | residual activity [3]: 89% | residual activity [4]: 103% | residual activity [5]: 93% | residual activity [6]: 85% | residual activity [7]: 94% | residual activity [8]: 100% | residual activity ([9]; Compound concentration 1.0 uM): 96% | residual activity ([9]; Compound concentration 10.0 uM): 86% | residual activity [10]: 77% | residual activity [11]: 74% | residual activity [12]: 90.2% | residual activity [13]: 97% | residual activity [14]: 98% | residual activity [15]: 62% | residual activity ([16]; Compound concentration 1.0 uM): 103% | residual activity ([16]; Compound concentration 10.0 uM): 90% | inhibition [17]: 2.13% | residual activity [18]: 90% | residual activity [19]: 96% | residual activity [20]: 98% | residual activity [21]: 91% | residual activity [22]: 74.9% | residual activity ([23]; Compound concentration 1.0 uM): 96% | residual activity ([23]; Compound concentration 10.0 uM): 84% | residual activity [24]: 86% | residual activity [25]: 102% | IC50 [26]: 272 nM | residual activity ([27]; Compound concentration 1.0 uM): 94% | residual activity ([27]; Compound concentration 10.0 uM): 93% | residual activity [28]: 86% | inhibition [29]: 8.94% | IC50 [30]: 6500 nM (not active) | residual activity [31]: 88% | residual activity [32]: 98% | residual activity [33]: 88% | residual activity [34]: 87% | inhibition [35]: 25.7% | residual activity [36]: 87% | residual activity [37]: 105% | residual activity [38]: 100%
